Reference: ChEMBL document CHEMBL4507299, “Data for DCP probe PF-04554878” (2021)

Assays:
[1] = molecular target: AP2-associated protein kinase 1 (Homo sapiens) (UniProt Q2M2I8)
[2] = molecular target: Serine/threonine-protein kinase 26 (Homo sapiens) (UniProt Q9P289)
[3] = tested on: Receptor-type tyrosine-protein kinase FLT3 (Homo sapiens), P36888 [D835H]
[4] = tested on: Phosphatidylinositol 4,5-bisphosphate 3-kinase catalytic subunit alpha isoform (Homo sapiens), P42336 [E545A]
[5] = molecular target: Serine/threonine-protein kinase PAK 1 (Homo sapiens) (UniProt Q13153)
[6] = molecular target: T1, Serine/threonine-protein kinase TAO3 (Homo sapiens) (UniProt Q9H2K8)
T1 sequence (whole entry): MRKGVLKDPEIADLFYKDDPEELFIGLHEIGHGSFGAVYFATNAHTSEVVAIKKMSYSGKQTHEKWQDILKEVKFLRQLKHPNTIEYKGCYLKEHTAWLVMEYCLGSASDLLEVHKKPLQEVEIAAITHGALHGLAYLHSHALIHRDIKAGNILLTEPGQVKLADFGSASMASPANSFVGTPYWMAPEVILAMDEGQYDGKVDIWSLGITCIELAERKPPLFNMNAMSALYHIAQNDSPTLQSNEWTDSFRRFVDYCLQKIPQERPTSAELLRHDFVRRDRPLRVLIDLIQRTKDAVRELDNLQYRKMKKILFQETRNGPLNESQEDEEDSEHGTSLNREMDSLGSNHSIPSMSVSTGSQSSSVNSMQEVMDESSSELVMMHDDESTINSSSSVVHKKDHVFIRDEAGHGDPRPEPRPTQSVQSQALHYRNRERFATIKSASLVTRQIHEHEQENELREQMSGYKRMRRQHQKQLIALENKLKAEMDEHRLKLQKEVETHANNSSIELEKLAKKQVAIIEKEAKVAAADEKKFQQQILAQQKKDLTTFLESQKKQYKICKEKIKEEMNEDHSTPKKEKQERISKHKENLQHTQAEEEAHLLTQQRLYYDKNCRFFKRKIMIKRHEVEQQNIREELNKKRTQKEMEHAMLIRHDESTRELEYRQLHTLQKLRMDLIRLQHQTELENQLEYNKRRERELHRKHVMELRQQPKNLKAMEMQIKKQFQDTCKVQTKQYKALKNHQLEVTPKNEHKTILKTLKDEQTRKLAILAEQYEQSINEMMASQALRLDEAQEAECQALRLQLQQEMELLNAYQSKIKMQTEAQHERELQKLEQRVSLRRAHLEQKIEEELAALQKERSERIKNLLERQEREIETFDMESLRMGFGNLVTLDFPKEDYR

[7] = molecular target: Ephrin type-A receptor 1 (Homo sapiens) (UniProt P21709)
Sequence of Ephrin type-A receptor 1 (Homo sapiens) (P21709 whole entry): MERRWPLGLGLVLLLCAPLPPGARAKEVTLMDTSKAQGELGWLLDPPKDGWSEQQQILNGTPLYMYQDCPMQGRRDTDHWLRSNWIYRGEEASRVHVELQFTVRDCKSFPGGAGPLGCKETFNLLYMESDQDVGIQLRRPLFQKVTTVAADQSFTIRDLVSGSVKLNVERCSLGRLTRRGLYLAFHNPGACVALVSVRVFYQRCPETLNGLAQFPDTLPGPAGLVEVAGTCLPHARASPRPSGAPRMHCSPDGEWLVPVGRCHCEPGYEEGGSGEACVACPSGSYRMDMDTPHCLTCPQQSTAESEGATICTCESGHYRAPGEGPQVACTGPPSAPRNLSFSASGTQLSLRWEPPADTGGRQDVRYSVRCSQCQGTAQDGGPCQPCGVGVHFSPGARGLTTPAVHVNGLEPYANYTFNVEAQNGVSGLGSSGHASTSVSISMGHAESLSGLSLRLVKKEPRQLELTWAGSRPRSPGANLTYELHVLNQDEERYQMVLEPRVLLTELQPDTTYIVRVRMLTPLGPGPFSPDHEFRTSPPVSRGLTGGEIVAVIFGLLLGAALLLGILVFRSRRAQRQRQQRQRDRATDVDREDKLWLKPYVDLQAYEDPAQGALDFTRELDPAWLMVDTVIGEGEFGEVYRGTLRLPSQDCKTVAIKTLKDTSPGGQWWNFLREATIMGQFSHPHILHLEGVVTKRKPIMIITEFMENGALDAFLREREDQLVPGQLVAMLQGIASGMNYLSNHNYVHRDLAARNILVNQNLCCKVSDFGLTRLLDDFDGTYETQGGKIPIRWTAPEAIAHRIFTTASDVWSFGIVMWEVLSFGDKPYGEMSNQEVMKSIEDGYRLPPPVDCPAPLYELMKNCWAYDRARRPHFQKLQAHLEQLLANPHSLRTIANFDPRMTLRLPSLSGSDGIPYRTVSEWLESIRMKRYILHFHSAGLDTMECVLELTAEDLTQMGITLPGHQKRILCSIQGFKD

[8] = molecular target: NUAK family SNF1-like kinase 1 (Homo sapiens) (UniProt O60285)
[9] = molecular target: Mitogen-activated protein kinase 10 (Homo sapiens) (UniProt P53779)
[10] = molecular target: Serine/threonine-protein kinase PLK2 (Homo sapiens) (UniProt Q9NYY3)
Sequence of Serine/threonine-protein kinase PLK2 (Homo sapiens) (Q9NYY3 whole entry, looked up): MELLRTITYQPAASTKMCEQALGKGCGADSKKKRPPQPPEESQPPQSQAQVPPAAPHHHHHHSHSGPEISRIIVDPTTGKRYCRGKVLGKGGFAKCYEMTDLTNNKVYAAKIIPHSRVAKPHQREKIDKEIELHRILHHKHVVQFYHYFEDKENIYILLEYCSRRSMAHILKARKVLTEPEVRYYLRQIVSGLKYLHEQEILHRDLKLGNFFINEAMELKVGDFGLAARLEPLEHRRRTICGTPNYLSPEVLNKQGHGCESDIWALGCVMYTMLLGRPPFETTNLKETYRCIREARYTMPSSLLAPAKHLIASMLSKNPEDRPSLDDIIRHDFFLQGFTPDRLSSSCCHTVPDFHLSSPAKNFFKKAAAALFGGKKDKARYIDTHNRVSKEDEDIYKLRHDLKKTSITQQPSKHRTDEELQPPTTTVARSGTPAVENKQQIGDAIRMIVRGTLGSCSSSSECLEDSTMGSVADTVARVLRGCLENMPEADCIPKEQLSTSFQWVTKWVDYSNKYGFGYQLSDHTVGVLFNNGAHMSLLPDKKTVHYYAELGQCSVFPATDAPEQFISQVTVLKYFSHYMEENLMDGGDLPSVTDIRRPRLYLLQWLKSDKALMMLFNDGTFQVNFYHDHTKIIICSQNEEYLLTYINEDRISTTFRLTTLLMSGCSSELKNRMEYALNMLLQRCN

[11] = molecular target: RAC-alpha serine/threonine-protein kinase (Homo sapiens) (UniProt P31749)
[12] = molecular target: Muscarinic acetylcholine receptor M3 (Homo sapiens) (UniProt P20309); conditions: Compound concentration 10.0 uM
[13] = molecular target: Mitogen-activated protein kinase 4 (Homo sapiens) (UniProt P31152)
[14] = tested on: Receptor-type tyrosine-protein kinase FLT3 (Homo sapiens), P36888 [N841I]
[15] = molecular target: Dual specificity protein kinase TTK (Homo sapiens) (UniProt P33981)
[16] = molecular target: Protein kinase C theta type (Homo sapiens) (UniProt Q04759)
[17] = tested on: Tyrosine-protein kinase ABL1 (Homo sapiens), P00519 [H396P]
[18] = molecular target: Ephrin type-B receptor 2 (Homo sapiens) (UniProt P29323)
[19] = molecular target: Protein kinase C epsilon type (Homo sapiens) (UniProt Q02156)
Sequence of Protein kinase C epsilon type (Homo sapiens) (Q02156 whole entry): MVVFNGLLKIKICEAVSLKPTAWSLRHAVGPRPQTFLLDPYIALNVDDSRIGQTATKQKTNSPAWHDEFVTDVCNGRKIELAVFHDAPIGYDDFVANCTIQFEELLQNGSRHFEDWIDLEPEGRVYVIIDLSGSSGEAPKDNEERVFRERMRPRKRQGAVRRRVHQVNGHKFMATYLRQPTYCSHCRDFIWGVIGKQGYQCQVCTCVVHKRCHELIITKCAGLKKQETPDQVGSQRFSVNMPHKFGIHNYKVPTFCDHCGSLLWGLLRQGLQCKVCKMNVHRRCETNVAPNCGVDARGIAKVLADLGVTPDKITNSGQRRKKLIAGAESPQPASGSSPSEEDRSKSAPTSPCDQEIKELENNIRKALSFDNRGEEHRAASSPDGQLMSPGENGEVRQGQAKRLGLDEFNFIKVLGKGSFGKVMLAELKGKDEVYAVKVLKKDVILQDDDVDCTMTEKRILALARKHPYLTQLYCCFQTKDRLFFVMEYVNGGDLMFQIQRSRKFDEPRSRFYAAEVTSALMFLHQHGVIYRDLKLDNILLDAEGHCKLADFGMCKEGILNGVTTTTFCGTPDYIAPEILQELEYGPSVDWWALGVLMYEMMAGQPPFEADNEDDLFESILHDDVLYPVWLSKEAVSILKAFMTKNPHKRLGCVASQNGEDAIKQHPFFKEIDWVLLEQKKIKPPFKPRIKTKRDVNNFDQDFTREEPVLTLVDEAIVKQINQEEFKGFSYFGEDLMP

[20] = molecular target: T2, Serine/threonine-protein kinase Sgk1 (Homo sapiens) (UniProt O00141)
T2 sequence (whole entry): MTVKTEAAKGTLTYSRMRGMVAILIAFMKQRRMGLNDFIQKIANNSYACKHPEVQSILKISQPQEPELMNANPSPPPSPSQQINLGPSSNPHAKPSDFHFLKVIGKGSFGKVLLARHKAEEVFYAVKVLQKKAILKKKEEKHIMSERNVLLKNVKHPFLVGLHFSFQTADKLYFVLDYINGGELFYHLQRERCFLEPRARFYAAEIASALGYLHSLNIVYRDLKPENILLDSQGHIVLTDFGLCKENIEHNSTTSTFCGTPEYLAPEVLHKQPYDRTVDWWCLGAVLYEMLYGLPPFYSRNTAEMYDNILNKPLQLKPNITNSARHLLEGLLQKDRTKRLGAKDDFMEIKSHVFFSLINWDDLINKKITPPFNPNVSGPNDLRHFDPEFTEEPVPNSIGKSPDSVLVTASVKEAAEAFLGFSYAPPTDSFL

[21] = tested on: Phosphatidylinositol 4,5-bisphosphate 3-kinase catalytic subunit alpha isoform (Homo sapiens), P42336 [E542K]
[22] = molecular target: Phosphatidylinositol 4,5-bisphosphate 3-kinase catalytic subunit alpha isoform (Homo sapiens) (UniProt P42336)
[23] = molecular target: Serine/threonine-protein kinase D2 (Homo sapiens) (UniProt Q9BZL6)
Sequence of Serine/threonine-protein kinase D2 (Homo sapiens) (Q9BZL6 whole entry): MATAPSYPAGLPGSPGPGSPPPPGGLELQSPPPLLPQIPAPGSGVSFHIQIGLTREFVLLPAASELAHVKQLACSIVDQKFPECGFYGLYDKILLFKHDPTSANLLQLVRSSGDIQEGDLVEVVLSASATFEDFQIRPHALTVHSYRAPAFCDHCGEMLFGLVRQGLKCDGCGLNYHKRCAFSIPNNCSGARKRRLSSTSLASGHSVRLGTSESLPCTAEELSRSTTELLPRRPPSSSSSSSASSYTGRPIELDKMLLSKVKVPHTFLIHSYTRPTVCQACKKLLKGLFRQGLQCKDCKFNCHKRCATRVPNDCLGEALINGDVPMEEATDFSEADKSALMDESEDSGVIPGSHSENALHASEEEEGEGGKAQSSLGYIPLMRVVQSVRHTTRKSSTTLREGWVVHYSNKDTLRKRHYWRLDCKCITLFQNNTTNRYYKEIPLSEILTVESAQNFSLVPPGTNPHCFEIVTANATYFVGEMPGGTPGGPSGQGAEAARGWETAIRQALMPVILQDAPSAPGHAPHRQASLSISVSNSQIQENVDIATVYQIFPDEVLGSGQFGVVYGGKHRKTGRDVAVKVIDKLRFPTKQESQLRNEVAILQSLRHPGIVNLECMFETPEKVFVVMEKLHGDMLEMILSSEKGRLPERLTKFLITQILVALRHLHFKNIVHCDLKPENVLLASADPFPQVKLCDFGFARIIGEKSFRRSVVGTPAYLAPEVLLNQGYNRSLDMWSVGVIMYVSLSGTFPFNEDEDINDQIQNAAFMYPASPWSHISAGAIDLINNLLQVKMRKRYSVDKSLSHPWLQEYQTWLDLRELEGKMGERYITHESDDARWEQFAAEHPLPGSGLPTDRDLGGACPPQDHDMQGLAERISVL

[24] = molecular target: Serine/threonine-protein kinase tousled-like 1 (Homo sapiens) (UniProt Q9UKI8)
[25] = molecular target: Mitogen-activated protein kinase 1 (Homo sapiens) (UniProt P28482)
[26] = molecular target: STE20/SPS1-related proline-alanine-rich protein kinase (Homo sapiens) (UniProt Q9UEW8)
[27] = molecular target: Serine/threonine-protein kinase RIO2 (Homo sapiens) (UniProt Q9BVS4)
Sequence of Serine/threonine-protein kinase RIO2 (Homo sapiens) (Q9BVS4 whole entry, looked up): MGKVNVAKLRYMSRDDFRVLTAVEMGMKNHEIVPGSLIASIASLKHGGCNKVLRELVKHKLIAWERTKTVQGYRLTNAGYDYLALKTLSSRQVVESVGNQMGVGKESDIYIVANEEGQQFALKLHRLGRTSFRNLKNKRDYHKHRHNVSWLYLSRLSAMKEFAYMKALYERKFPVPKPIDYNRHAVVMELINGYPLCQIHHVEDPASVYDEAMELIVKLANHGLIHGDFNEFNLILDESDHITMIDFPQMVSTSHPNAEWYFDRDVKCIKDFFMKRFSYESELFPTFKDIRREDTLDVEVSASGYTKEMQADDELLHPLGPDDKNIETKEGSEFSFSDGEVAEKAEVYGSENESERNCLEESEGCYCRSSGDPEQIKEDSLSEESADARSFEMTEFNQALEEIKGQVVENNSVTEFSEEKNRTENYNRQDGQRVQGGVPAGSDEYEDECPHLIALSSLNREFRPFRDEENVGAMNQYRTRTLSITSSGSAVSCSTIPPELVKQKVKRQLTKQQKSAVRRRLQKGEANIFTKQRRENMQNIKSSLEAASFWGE

[28] = Compound concentration 100.0 nM
[29] = Compound concentration 1000.0 nM

Sequence of AP2-associated protein kinase 1 (Homo sapiens) (Q2M2I8 whole entry, looked up): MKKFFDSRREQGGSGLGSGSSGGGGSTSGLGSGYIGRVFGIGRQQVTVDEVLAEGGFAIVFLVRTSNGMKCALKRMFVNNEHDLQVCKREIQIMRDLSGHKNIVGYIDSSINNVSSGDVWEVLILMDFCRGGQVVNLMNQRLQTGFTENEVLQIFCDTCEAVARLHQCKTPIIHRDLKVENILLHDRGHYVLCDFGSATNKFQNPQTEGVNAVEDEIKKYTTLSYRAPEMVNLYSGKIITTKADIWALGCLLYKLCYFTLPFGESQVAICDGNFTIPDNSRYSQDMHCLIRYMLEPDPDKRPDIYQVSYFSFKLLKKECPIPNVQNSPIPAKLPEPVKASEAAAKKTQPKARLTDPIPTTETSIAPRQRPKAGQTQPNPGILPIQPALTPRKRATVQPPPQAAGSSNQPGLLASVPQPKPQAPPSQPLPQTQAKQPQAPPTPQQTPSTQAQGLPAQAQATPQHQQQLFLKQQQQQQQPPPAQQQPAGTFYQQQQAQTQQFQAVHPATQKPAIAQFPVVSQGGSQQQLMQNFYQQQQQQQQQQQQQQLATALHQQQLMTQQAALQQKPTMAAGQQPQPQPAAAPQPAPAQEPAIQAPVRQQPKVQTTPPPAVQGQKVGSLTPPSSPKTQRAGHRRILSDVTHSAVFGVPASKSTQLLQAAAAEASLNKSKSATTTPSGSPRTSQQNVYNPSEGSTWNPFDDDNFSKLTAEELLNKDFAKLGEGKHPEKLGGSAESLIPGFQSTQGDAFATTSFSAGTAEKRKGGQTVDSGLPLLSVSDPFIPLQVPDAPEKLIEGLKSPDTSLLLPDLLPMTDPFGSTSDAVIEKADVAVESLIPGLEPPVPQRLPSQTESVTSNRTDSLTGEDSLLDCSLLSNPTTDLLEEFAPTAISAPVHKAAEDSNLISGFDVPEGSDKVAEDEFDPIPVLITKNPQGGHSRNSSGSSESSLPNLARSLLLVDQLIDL

`CNC(=O)c1ccc(Nc2ncc(C(F)(F)F)c(NCc3nccnc3N(C)S(C)(=O)=O)n2)cc1` [DEFACTINIB] gave a residual activity [1, 28] of 80%, a residual activity [2, 28] of 95% and a residual activity [3, 28] of 9.8%. It also gave a residual activity [4, 28] of 98%, a residual activity [5, 28] of 75% and a residual activity [6, 28] of 26%. The residual activity [7, 28] was 98%, the residual activity [8, 28] was 31% and the residual activity [9, 28] was 100%. For the same molecule, the residual activity [10, 28] was 77%, the residual activity [11, 28] was 100% and the inhibition [12] was 23.8%. For the same molecule, the residual activity [13, 28] was 87%, the residual activity [14, 28] was 0% and the residual activity [15, 28] was 8.3%. The residual activity [16, 28] was 89%, the residual activity [17, 28] was 68% and the residual activity [18, 28] was 76%. The residual activity [19, 28] was 100%, the residual activity [20, 28] was 56% and the residual activity [21, 28] was 49%. For the same molecule, the residual activity [22, 28] was 100%, the residual activity [23, 28] was 100% and the residual activity [24, 28] was 73%. The residual activity [25, 28] was 76%, the residual activity [26, 28] was 100% and the residual activity [27, 28] was 85%.

Molecule `CN(c1ccnc(CNc2nc(Nc3ccc4c(c3)CC(=O)N4)ncc2C(F)(F)F)n1)S(C)(=O)=O` [PF-00911705] has a residual activity [1, 29] of 27%, a residual activity [2, 29] of 46% and a residual activity [3, 29] of 15%. It also gave a residual activity [4, 29] of 90%, a residual activity [5, 29] of 73% and a residual activity [6, 29] of 12%. It also gave a residual activity [7, 29] of 86%, a residual activity [8, 29] of 21% and a residual activity [9, 29] of 56%. For the same molecule, the residual activity [10, 29] was 0.5%, the residual activity [11, 29] was 100% and the inhibition [12] was -4.64%. It also gave a residual activity [13, 29] of 57%, a residual activity [14, 29] of 0% and a residual activity [15, 29] of 13%. It also gave a residual activity [16, 29] of 55%, a residual activity [17, 29] of 26% and a residual activity [18, 29] of 81%. It also gave a residual activity [19, 29] of 50%, a residual activity [20, 29] of 66% and a residual activity [21, 29] of 100%. The residual activity [22, 29] was 100%, the residual activity [23, 29] was 92% and the residual activity [24, 29] was 79%. The residual activity [25, 29] was 70%, the residual activity [26, 29] was 100% and the residual activity [27, 29] was 81%.
